Calls of active or inactive are those of the source. The calls are words filed in the database; no cut-off is given here.
What was measured:
[1] = target: Glycogen synthase kinase-3 beta (Homo sapiens, UniProt P49841); experiment: Inhibition of recombinant human N-terminal His-tagged GSK-3beta expressed in Escherichia coli using glycogen synthase-2 as substrate and ATP measured after 30 mins by Kinase-Glo luminescent kinase assay
Mus musculus [2] = experiment: Antidepressant activity in Swiss albino mouse assessed as duration of immobility at 50 mg/kg, po dosed 1 hr before test measured after 6 mins by tail suspension test (reference value: 183 sec)
Mus musculus [3] = experiment: Antidepressant activity in Swiss albino mouse assessed as reduction in duration of immobility at 50 mg/kg, po dosed 1 hr before test measured after 6 mins by forced swim test relative to control; assay type: functional, organism-based

Sequence of Glycogen synthase kinase-3 beta (P49841 whole entry): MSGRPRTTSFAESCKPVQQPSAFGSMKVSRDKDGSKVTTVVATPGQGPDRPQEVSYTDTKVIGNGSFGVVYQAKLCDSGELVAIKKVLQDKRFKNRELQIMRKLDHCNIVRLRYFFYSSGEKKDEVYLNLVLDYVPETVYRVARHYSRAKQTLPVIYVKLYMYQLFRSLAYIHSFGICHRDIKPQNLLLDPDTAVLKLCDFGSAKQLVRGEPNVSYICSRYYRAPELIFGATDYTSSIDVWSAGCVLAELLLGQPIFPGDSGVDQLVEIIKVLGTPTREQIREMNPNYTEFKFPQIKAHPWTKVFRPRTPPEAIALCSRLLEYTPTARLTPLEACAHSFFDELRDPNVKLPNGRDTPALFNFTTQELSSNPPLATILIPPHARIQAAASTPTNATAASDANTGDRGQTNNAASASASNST

SMILES	IC50 [1] [nM]	Time (Mus musculus [2]) [s]	Activity (Mus musculus [3])
Cc1nc2ccccc2n1CC(=O)NNC(=O)c1ccc[nH]1	124	–	–
Cc1nc2ccccc2n1CC(=O)NNC(=O)Cc1cccc2ccccc12	157	–	–
CCOc1ccc(Nc2nnc(Cn3c(C)nc4ccccc43)s2)cc1	293	–	–
Cc1nc2ccccc2n1Cc1nnc(Nc2ccccc2Br)s1	190	–	–
Cc1ccccc1CC(=O)NNC(=O)Cn1c(C)nc2ccccc21	92	168	–
Cc1nc2ccccc2n1Cc1nnc(Nc2ccccc2F)s1	76	120	Active
Cc1nc2ccccc2n1Cc1nnc(Nc2ccc(Br)cc2)s1	173	–	–
Cc1nc2ccccc2n1CC(=O)NNC(=O)CCC(=O)c1ccc(Oc2ccccc2)cc1	80	135	Active
Cc1nc2ccccc2n1CC(=O)NNC(=O)Cc1ccc([N+](=O)[O-])cc1	205	–	–
CNCCC(Oc1ccc(C(F)(F)F)cc1)c1ccccc1 (centres undefined) [FLUOXETINE]	–	153	–
Cc1nc2ccccc2n1CC(=O)NNC(=O)c1c[nH]c2ccccc12	148	–	–
Cc1nc2ccccc2n1Cc1nnc(NC2CCCCC2)s1	406	–	–
COc1ccccc1Nc1nnc(Cn2c(C)nc3ccccc32)s1	184	–	–
COc1ccc(CC(=O)NNC(=O)Cn2c(C)nc3ccccc32)cc1	379	–	–
Cc1nc2ccccc2n1Cc1nnc(Nc2ccc([N+](=O)[O-])cc2)s1	107	174	–
Cc1nc2ccccc2n1Cc1nnc(Nc2ccccc2)s1	157	–	–
COc1ccc(C(=O)CCC(=O)NNC(=O)Cn2c(C)nc3ccccc32)cc1	561	–	–
Cc1nc2ccccc2n1Cc1nnc(Nc2ccc(Cl)cc2)s1	145	–	–
Cc1nc2ccccc2n1CC(=O)NNC(=O)Cc1ccc(Cl)cc1	131	–	–
COc1ccc(Nc2nnc(Cn3c(C)nc4ccccc43)s2)cc1	151	–	–
CCCCNc1nnc(Cn2c(C)nc3ccccc32)s1	582	–	–
Cc1nc2ccccc2n1CC(=O)NNC(=O)Cc1ccccc1	105	–	–
Cc1nc2ccccc2n1Cc1nnc(Nc2ccccc2Cl)s1	122	–	–
Cc1nc2ccccc2n1CC(=O)NNC(=O)C(=O)c1c[nH]c2ccccc12	72	105	Active
Cc1nc2ccccc2n1Cc1nnc(Nc2ccc(F)cc2)s1	134	–	–
Cc1nc2ccccc2n1CC(=O)NNC(=O)Cc1cc2ccccc2[nH]1	135	–	–

From ChEMBL document CHEMBL3826872, “Synthesis of benzimidazole based thiadiazole and carbohydrazide conjugates as glycogen synthase kinase-3β inhibitors with anti-depressant activity” (Bioorg Med Chem Lett, 2016)
